Measurements reported in patent publication US11724992B2 (Novartis AG, priority 2017, dated 2023).
pIC50: −log10 of the molar value. Read-outs that look alike come from different tables or passages of the source.

Test system: IL-1β production in PMA-differentiated THP-1 cells
Test: IL-1β production in PMA-differentiated THP-1 cells stimulated with gramicidin (hTHP-1 assay, 2% fetal bovine serum; Procedures 1-3)
Type: cell-based, human
Conditions: class symbols, read-out: hTHP-1 IC50 (Average IC50 of compounds in hTHP-1 assay)
Summary of the method: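 PMA-differentiated (20 ng/ml, 16-18 h) THP-1 cells in RPMI with 2% FBS, 50,000 cells/well, preincubated 1 h with compound (final 100–0.0017 μM, 0.37% DMSO), then stimulated with 5 μM gramicidin for 2 h. Supernatant IL-1β measured by HTRF.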

[1] = hTHP-1 assay containing 2% fetal bovine serum
[2] = Homo sapiens, THP-1, hTHP-1 assay containing 2% fetal bovine serum

pIC50 [1] | pIC50 [2] | Compound
5.30 to 6.00 |  | CC(C)(O)c1ncc(S(N)(=O)=NC(=O)Nc2cc3c(c4c2CCC4)CCC3)s1 (single isomer, unassigned) [Example 420, (S) or (R)-N′-((1,2,3,6,7,8-hexahydro-as-indacen-4-yl)carbamoyl)-2-(2-hydroxypropan-2-yl)thiazole-5-sulfonimidamide]
6.00 to 6.70 |  | CC(C)c1cc(OC(F)F)cc(C(C)C)c1NC(=O)N=S(N)(=O)c1sc(C(C)(C)O)cc1F (single isomer, unassigned) [Example 96]
 | 6.00 to 6.70 | Cc1cc(S(N)(=O)=NC(=O)Nc2c3c(cc4c2CCC4)CCC3)ccc1C(C)(C)O (stereo not drawn) [Example 52, N′-((1,2,3,5,6,7-hexahydro-s-indacen-4-yl)carbamoyl)-4-(2-hydroxypropan-2-yl)-3-methylbenzenesulfonimidamide]
5.30 to 6.00 |  | Cc1cc(S(N)(=O)=NC(=O)Nc2c(C(C)C)cc(OC(F)F)cc2C(C)C)sc1C(C)(C)O (single isomer, unassigned) [Example 173]
6.00 to 6.70 |  | COC(C)(C)c1ccc(S(N)(=O)=NC(=O)Nc2c3c(cc4c2CCC4)CCC3)cc1 (single isomer, unassigned) [Example 399, (R) or (S)-N′-((1,2,3,5,6,7-hexahydro-s-indacen-4-yl)carbamoyl)-4-(2-methoxypropan-2-yl)benzenesulfonimidamide]
6.70 to 7.40 |  | CC(C)c1cc(OC(F)F)cc(C(C)C)c1NC(=O)N=S(N)(=O)c1ncc(C(C)(C)O)s1 (single isomer, unassigned) [Example 137]
4.52 to 5.30 |  | CC(C)c1cc(F)cc(C(C)C)c1NC(=O)N=S(N)(=O)c1cccc(C(C)(C)O)c1 (single isomer, unassigned) [Example 106]
6.00 to 6.70 |  | CC(C)(O)c1ncc(S(N)(=O)=NC(=O)Nc2c3c(cc4c2CCC4=O)CCC3)s1 (single isomer, unassigned) [Example 336, (R) or (S)-2-(2-Hydroxypropan-2-yl)-N′-((1-oxo-1,2,3,5,6,7-hexahydro-s-indacen-4-yl)carbamoyl)thiazole-5-sulfonimidamide from Example 293]
6.70 to 7.40 |  | CC(C)(O)c1ccc(S(N)(=O)=NC(=O)Nc2c3c(cc4c2CCC4)CCC3)c(F)c1 (single isomer, unassigned) [Example 87]
6.00 to 6.70 |  | CC(C)(O)c1cc(F)c(S(N)(=O)=NC(=O)Nc2c3c(cc4c2CCC4)CCC3)s1 (single isomer, unassigned) [Example 386, (S) or (R)-3-fluoro-N′-((1,2,3,5,6,7-hexahydro-s-indacen-4-yl)carbamoyl)-5-(2-hydroxypropan-2-yl)thiophene-2-sulfonimidamide]
6.00 to 6.70 |  | CC(C)(O)c1ncc(S(N)(=O)=NC(=O)Nc2c3c(cc4c2CC4)CC3)s1 (single isomer, unassigned) [Example 356, (S) or (R)-2-(2-hydroxypropan-2-yl)-N′-(tricyclo[6.2.0.03,6]deca-1,3(6),7-trien-2-ylcarbamoyl)thiazole-5-sulfonimidamide]
 | 4.52 to 5.30 | CNS(=O)(=NC(=O)Nc1c2c(cc3c1CCC3)CCC2)c1cnc(C(C)(C)O)s1 (stereo not drawn) [Example 247, N′-((1,2,3,5,6,7-hexahydro-s-indacen-4-yl)carbamoyl)-2-(2-hydroxypropan-2-yl)-N-methylthiazole-5-sulfonimidamide]
6.70 to 7.40 |  | CC(c1ccc(S(N)(=O)=NC(=O)Nc2c3c(cc4c2CCC4)CCC3)cc1)N(C)C (stereo not drawn) [Example 266, 4-(1-(Dimethylamino)ethyl)-N′-(1,2,3,5,6,7-hexahydro-s-indacen-4-ylcarbamoyl)benzenesulfonimidamide]
> 8.10 |  | CC(C)(O)c1cnc(S(N)(=O)=NC(=O)Nc2c3c(cc4c2CCC4)CCC3)s1 (single isomer, unassigned) [Example 296, (R) or (S)-N′-((1,2,3,5,6,7-hexahydro-s-indacen-4-yl)carbamoyl)-5-(2-hydroxypropan-2-yl)thiazole-2-sulfonimidamide]
5.30 to 6.00 |  | CC(C)(O)c1ccc(S(N)(=O)=NC(=O)Nc2c3c(cc4c2CCC4)CCC3)cc1F (single isomer, unassigned) [Example 179]
 | 7.40 to 8.10 | CN(C)Cc1cc(F)c(S(N)(=O)=NC(=O)Nc2c3c(cc4c2CCC4)CCC3)s1 (stereo not drawn) [Example 279, 5-((Dimethylamino)methyl)-3-fluoro-N′-(1,2,3,5,6,7-hexahydro-s-indacen-4-ylcarbamoyl)thiophene-2-sulfonimidamide]

pIC50 [1] | pIC50 [2] | Compound
6.70 to 7.40 |  | CN1CCCC1c1ccc(S(=N)(=O)NC(=O)Nc2c3c(cc4c2CCC4)CCC3)cc1 (single isomer, unassigned) [Example 410, (R,S) or (S,R) or (R,S or (S,S)-N-((1,2,3,5,6,7-hexahydro-s-indacen-4-yl)carbamoyl)-4-(1-methylpyrrolidin-2-yl)benzenesulfonimidamide]
5.30 to 6.00 |  | CC(C)(O)c1ncc(S(N)(=O)=NC(=O)Nc2c3c(cc4c2CCC4=O)CCC3)s1 (single isomer, unassigned) [Example 335, (S) or (R)-2-(2-Hydroxypropan-2-yl)-N′-((1-oxo-1,2,3,5,6,7-hexahydro-s-indacen-4-yl)carbamoyl)thiazole-5-sulfonimidamide from Example 293]
 | 6.70 to 7.40 | CC(C)(O)c1ncc(S(N)(=O)=NC(=O)Nc2c3c(cc4c2OCC4)CCC3)s1 (stereo not drawn) [Example 289, 2-(2-Hydroxypropan-2-yl)-N′-((3,5,6,7-tetrahydro-2H-indeno[5,6-b]furan-8-yl)carbamoyl)thiazole-5-sulfonimidamide]
5.30 to 6.00 |  | CC(C)(O)c1ncc(S(N)(=O)=NC(=O)Nc2c3c(c(C#N)c4c2CCC4)CCC3)s1 (single isomer, unassigned) [Example 146]
5.30 to 6.00 |  | CC(C)c1ccc(F)c(C(C)C)c1NC(=O)N=S(N)(=O)c1cnc(C(C)(C)O)s1 (single isomer, unassigned) [Example 299, (S) or (R)-N′-((3-fluoro-2,6-diisopropylphenyl)carbamoyl)-2-(2-hydroxypropan-2-yl)thiazole-5-sulfonimidamide]
5.30 to 6.00 |  | CN(C)Cc1ccc(S(N)(=O)=NC(=O)Nc2c3c(cc4c2CCC4)CCC3)c(F)c1 (single isomer, unassigned) [Example 155]
6.70 to 7.40 |  | CN(C)C(C)(C)c1ccc(S(N)(=O)=NC(=O)Nc2c3c(cc4c2CCC4)CCC3)cc1 (single isomer, unassigned) [Example 361, (R) or (S)-4-(2-(dimethylamino)propan-2-yl)-N′-((1,2,3,5,6,7-hexahydro-s-indacen-4-yl)carbamoyl)benzenesulfonimidamide]
7.40 to 8.10 |  | Cc1sc(S(N)(=O)=NC(=O)Nc2c3c(cc4c2CCC4)CCC3)nc1C(C)(C)O (single isomer, unassigned) [Example 359, (R) or (S)-N′-((1,2,3,5,6,7-hexahydro-s-indacen-4-yl)carbamoyl)-4-(2-hydroxypropan-2-yl)-5-methylthiazole-2-sulfonimidamide]
5.30 to 6.00 |  | Cc1nc(C(C)(C)O)sc1S(N)(=O)=NC(=O)Nc1c2c(cc3c1CCC3)CCC2 (single isomer, unassigned) [Example 165]
4.52 to 5.30 |  | CC(C)(O)c1cccc(S(N)(=O)=NC(=O)Nc2c3c(c(F)c4c2CCC4)CCC3)c1 (single isomer, unassigned) [Example 129]
6.70 to 7.40 |  | CC1CCc2cc3c(c(NC(=O)N=S(N)(=O)c4cnc(C(C)(C)O)s4)c21)CCC3 (stereo not drawn) [Example 292, 2-(2-Hydroxypropan-2-yl)-N′-((3-methyl-1,2,3,5,6,7-hexahydro-s-indacen-4-yl)carbamoyl)thiazole-5-sulfonimidamide]
6.00 to 6.70 |  | CC(C)(O)c1cc(F)cc(S(N)(=O)=NC(=O)Nc2c3c(c(F)c4c2CCC4)CCC3)c1 (single isomer, unassigned) [Example 171]
5.30 to 6.00 |  | CC(C)(O)c1ncc(S(N)(=O)=NC(=O)Nc2c3c(cc4c2C(=O)CC4)CCC3)s1 (single isomer, unassigned) [Example 363, (S) or (R)-2-(2-Hydroxypropan-2-yl)-N′-((3-oxo-1,2,3,5,6,7-hexahydro-s-indacen-4-yl)carbamoyl)thiazole-5-sulfonimidamide]
6.00 to 6.70 |  | CC(C)(O)c1csc(S(N)(=O)=NC(=O)Nc2c3c(c(Cl)c4c2CCC4)CCC3)c1 (single isomer, unassigned) [Example 90]
6.00 to 6.70 |  | CN1CCCC1c1ccc(S(=N)(=O)NC(=O)Nc2c3c(cc4c2CCC4)CCC3)cc1 (stereo not drawn) [Example 283, N-((1,2,3,5,6,7-hexahydro-s-indacen-4-yl)carbamoyl)-4-(1-methylpyrrolidin-2-yl)benzenesulfonimidamide]
4.52 to 5.30 |  | CC(C)(O)c1ccc(S(N)(=O)=NC(=O)Nc2c3c(c(Cl)c4c2CCC4)CCC3)c(F)c1 (single isomer, unassigned) [Example 143]
5.30 to 6.00 |  | CC(C)(O)c1cc(S(N)(=O)=NC(=O)Nc2c3c(c(F)c4c2CCC4)CCC3)ccc1F (single isomer, unassigned) [Example 175]
